Experimental data published in patent US20250221410A1, “SUBSTITUTED 2-C-AZINES AND SALTS THEREOF, AND USE THEREOF AS HERBICIDAL ACTIVE SUBSTANCES” (BAYER AKTIENGESELLSCHAFT, priority 2022, published 2025).

Key:
Assay type in all cases: in vivo
[1] = system: AMARE: Amaranthus retroflexus; test: Pre-emergence herbicide efficacy at 80 g/ha, AMARE; conditions: scored visually after about 3 weeks
Description: (§1) Seeds of monocotyledonous and dicotyledonous weed plants and crop plants were placed in plastic or organic planting pots and covered with soil. The compounds of the invention, formulated in the form of wettable powders (WP) or as emulsion concentrates (EC), were then applied to the surface of the covering soil as aqueous suspension or emulsion with addition of 0.5% additive at a water application rate equivalent to 600 l/ha. After the treatment, the pots were placed in a greenhouse and kept under good growth conditions for the test plants. After about 3 weeks, the efficacy of the preparations was scored visually in comparison with untreated controls as percentages. For example, 100% activity=the plants have died, 0% activity=like control plants. Tables D1 to D12 below show the effects of selected compounds of the general formula (I) according to Table 1 on various harmful plants and an application rate corresponding to 80 g/ha, which were obtained by the experimental procedure mentioned above.

VERPE: Veronica persica = test: Pre-emergence herbicide efficacy at 80 g/ha, VERPE; conditions: scored visually after about 3 weeks
Description: as §1

POLCO = test: Pre-emergence herbicide efficacy at 80 g/ha, POLCO; conditions: Polygonum convolvulus, scored visually after about 3 weeks
Description: as §1

[2] = system: ABUTH: Abutilon theophrasti; test: Pre-emergence herbicide efficacy at 80 g/ha, ABUTH; conditions: scored visually after about 3 weeks
Description: as §1

[3] = system: AMARE: Amaranthus retroflexus; test: Post-emergence herbicidal efficacy at 80 g/ha, AMARE; conditions: visual rating about 3 weeks after treatment vs untreated controls
Experimental: Seeds of monocotyledonous and dicotyledonous weeds and crop plants were placed in sandy loam in plastic or organic planting pots, covered with soil and cultivated in a greenhouse under controlled growth conditions. 2 to 3 weeks after sowing, the test plants were treated at the one-leaf stage. The compounds of the invention, formulated in the form of wettable powders (WP) or as emulsion concentrates (EC), were then sprayed onto the green parts of the plants as aqueous suspension or emulsion with addition of 0.5% additive at a water application rate of 600 l/ha (converted). After the test plants had been kept in the greenhouse under optimum growth conditions for about 3 weeks, the activity of the preparations was rated visually in comparison to untreated controls. For example, 100% activity=the plants have died, 0% activity=like control plants. Tables B1 to B10 below show the effects of selected compounds of the general formula (I) according to Table 1 on various harmful plants and an application rate corresponding to 80 g/ha, which were obtained by the experimental procedure mentioned above.

SETVI: Setaria viridis = test: Pre-emergence herbicide efficacy at 80 g/ha, SETVI; conditions: scored visually after about 3 weeks
Description: as §1

[4] = system: DIGSA: Digitaria sanguinalis; test: Pre-emergence herbicide efficacy at 80 g/ha, DIGSA; conditions: scored visually after about 3 weeks
Description: as §1

[5] = system: MATIN: Matricaria inodora; test: Pre-emergence herbicide efficacy at 80 g/ha, MATIN; conditions: scored visually after about 3 weeks
Description: as §1

SMILES | Pre-emergence efficacy against AMARE in % [1] [%] | Pre-emergence efficacy against VERPE in % (VERPE: Veronica persica) [%] | Pre-emergence efficacy against POLCO in % (POLCO) [%] | Pre-emergence efficacy against ABUTH in % [2] [%] | Post-emergence efficacy against AMARE [3] [%] | Pre-emergence efficacy against SETVI in % (SETVI: Setaria viridis) [%] | Pre-emergence efficacy against DIGSA in % [4] [%] | Pre-emergence efficacy against MATIN in % [5] [%]
Fc1cnc(Cc2ccccc2-c2cc(C(F)F)no2)nc1 [Example 1-135] | 100 | 95 | 90 | 95 | 100 | – | – | –
Fc1cnc(Oc2c(F)cccc2Cc2ncc(Cl)cn2)nc1 [Example 1-152] | 100 | – | 90 | 80 | 90 | 80 | 90 | –
Fc1cnc(Cc2cccc(Cl)c2Oc2ncc(F)cn2)nc1 [Example 1-156] | 100 | – | 80 | 90 | 80 | – | 90 | 80
Cc1cccc(Cc2ncc(Cl)cn2)c1Oc1ncc(Cl)cn1 [Example 1-166] | 95 | – | 90 | – | – | 80 | 100 | –
Fc1ccc(Cc2c(F)cccc2Oc2ncc(Cl)cn2)nc1 [Example 1-194] | 100 | 90 | 90 | – | 98 | 100 | 90 | –
